Results reported in patent US10112977B2, “Peptide for inducing multinucleation in cells, and use therefor” (Toagosei Co., Ltd., priority 2014, dated 2018).
Where “and” joins values, the source holds several entries; their conditions need not be identical. Identical values can stand only once. Peptide text beside a SMILES is read from it.

What was measured:
[1] = tested on: HeLa S3 cells; assay: Evaluation test 1 of multinucleation-inducing activity (calreticulin cytoimmunostaining and DAPI nuclear staining, confocal fluorescence observation); type: cell-based, human; conditions: peptide concentration 50 μM, culture for 4 days
Method: To evaluate the multinucleation-inducing activity of the multinucleation-inducing synthetic peptides (sample 1 and sample 2) obtained in Example 1, cytoimmunostaining (fluorescence immunostaining) was performed using calreticulin as the cytoplasm marker and nuclear staining was performed with DAPI (4′,6-diamidino-2-phenylindole). HeLa S3 cells (ATCC (registered trademark), CCL2.2), a cultured cell strain originating from human cervical cancer, were used as the sample cells. The evaluation test is described in the following.
HeLa S3 cells were seeded into each well of a 4-chamber (well) cell culture slide (also referred to as a chamber) to provide approximately 1×10^3 cells per well and were cultured overnight in an incubator under conditions of 5% CO2 and 37° C. The medium used was a common DMEM medium, i.e., DMEM (Wako Pure Chemical Industries, Ltd., Cat. No. 043-30085) containing 10% […], 100 units/mL of penicillin, and 100 μg/mL of streptomycin. After this overnight culture, the medium in the culture chamber was exchanged for medium obtained by the addition, to the aforementioned DMEM medium containing PBS, penicillin and streptomycin, of the sample 1, sample 2, or sample 3 peptide in an amount providing a peptide concentration of 50 μM, and subculturing was carried out by culture for 4 days under the same conditions. The control group was a peptide-free group in which only PBS (−) was added in the same volume as the peptide stock solution that was added in the sample addition groups.
After completion of the culture period, the status of multinucleation in the cells in each test group was observed using the following cytoimmunostaining.
The cells in each test group wore first fixed followed by a blocking treatment. Specifically, the medium in the culture chamber in the test group was first removed and washing was carried out twice with cold PBS (−). A solution prepared by mixing 1 volume of methanol with 1 volume of acetone (methanol/acetone=1:1 solution) was then added and the HeLa S3 cells were fixed by standing for 15 minutes on ice. The methanol/acetone=1:1 solution was then removed acid washing was carried out three times with cold PBS PBS (−) containing 3% BSA (PBS (−) that contained 3% BSA) was added and a blocking treatment was carried out for 1 hour at room temperature. After the passage of the prescribed period of time, the PBS (−) containing 3% BSA was removed and washing with cold PBS (−) was performed three times. […]
The cells in each test group that had been subjected to this cytoimmunostaining were mounted using a cover glass and Slow Fade (Life Technologies Corporation, Cat. No. S36936), which is a DAPI-containing mountant, and fluorescence observation was performed using a confocal laser microscope. […]

[2] = tested on: HeLa S3 cells; assay: Evaluation test 2 of multinucleation-inducing activity (multinucleation induction ratio); type: cell-based, human; conditions: 50 μM peptide, 4 days; for number of multinuclear cells (number): cells with two or more nuclei in 1 field of vision, individual test; for multinucleation induction ratio (%): individual test (1 field of vision)
Method: The multinucleation induction ratio was determined for the multinucleation-inducing synthetic peptides (sample 1 and sample 2) obtained in Example 1. The same HeLa S3 cells as in Example 2 were used for the sample cells. The evaluation test is described in the following.
HeLa S3 cells were seeded into each well of an 8-chamber (well) cell culture slide (also referred to as a chamber) to provide approximately 0.5×10^3 cells per well and were cultured overnight in an incubator under conditions of 5% CO2 and 37° C. The medium used was a common DMEM medium, i.e., DMEM (Wako Pure Chemical industries, Ltd., Cat. No. 043-30085) containing 10% FBS, 100 units/mL of penicillin, and 100 μg/mL of streptomycin. After this overnight culture, the medium in the culture chamber was exchanged for medium obtained by the addition of sample 1 or sample 2 in an amount giving a peptide concentration of 50 μM to DMEM medium prepared by adding 3% FBS, 100 units/mL of penicillin, and 100 μg/mL of streptomycin to the aforementioned DMEM, and subculturing was carried out by culture for 4 days under the same conditions. The control group was a peptide-free group in which only PBS (−) was added in the same volume as the peptide stock solution that was added in the sample addition groups.
After completion of the culture period, the cells in the test groups were subjected to cytoimmunostaining of a cytoplasm marker (calreticulin) nuclear staining as in Example 2. After the execution of the cytoimmunostaining and nuclear staining, the cells each test group were subjected to fluorescence observation using a confocal laser microscope and, for the cells observed in 1 field of vision, the total number of cells and the number of cells presenting two or more nuclei (number of multinucleated cells) were counted. The multinucleation induction ratio (proportion (%) for the number of cells having two or more nuclei with reference to the total number of cells observed in 1 field of vision in the microscopic observation) was calculated using the following formula: multinucleation induction ratio (%)=(number of cells having two or more nuclei)÷(total number of cells)×100. Using these conditions air the evaluation test for the multinucleation induction ratio, the test was carried out independently three times and the average multinucleation induction ratio was calculated by taking the average of the multinucleation induction ratios obtained in the individual tests.

| Compound | cells in which a plurality of nuclei had formed (induction of multinucleation), fluorescence observation [1] | number of nuclei per multinucleated cell, compared with sample 2 addition group [1] | number of multinuclear cells (number) [2] | multinucleation induction ratio (%) [2] | average multinucleation induction ratio (%) ([2]; average of three independent tests) |
| --- | --- | --- | --- | --- | --- |
| CC(C)C[C@H](NC(=O)[C@@H](NC(=O)[C@H](CCCNC(=N)N)NC(=O)[C@H](CCCCN)NC(=O)[C@@H](N)CCCCN)[C@@H](C)O)C(=O)N[C@@H](CCCNC(=N)N)C(=O)N[C@@H](CCCCN)C(=O)N[C@@H](CC(N)=O)C(=O)N[C@@H](CC(=O)O)C(=O)N[C@@H](CCCNC(=N)N)C(=O)N[C@@H](CCCCN)C(=O)N[C@@H](CCCCN)C(=O)N[C@@H](CCCNC(=N)N)C(=O)NCC(=O)NCC(=O)N[C@@H](CS)C(=O)N1CCC[C@H]1C(=O)N[C@@H](CC(=O)O)C(=O)NCC(=O)N[C@@H](C)C(=O)N[C@@H](CCCCN)C(=O)N[C@@H](C)C(=O)N[C@@H](CCCNC(=N)N)C(=O)N[C@@H](CS)C(=O)O [sample 1, KKRTLRKNDRKKR GG CPDGAKARC] (H-KKRTLRKNDRKKRGGCPDGAKARC-OH; N-terminus and C-terminus assumed) | cells in which a plurality of nuclei had formed were observed | significantly larger number of nuclei per cell | 12 number and 11 number and 13 number | 41.4% and 39.3% and 41.9% | – |
| CC(C)C[C@H](NC(=O)[C@@H](NC(=O)[C@H](CCCNC(=N)N)NC(=O)[C@H](CCCCN)NC(=O)[C@@H](N)CCCCN)[C@@H](C)O)C(=O)N[C@@H](CCCNC(=N)N)C(=O)N[C@@H](CCCCN)C(=O)N[C@@H](CC(N)=O)C(=O)N[C@@H](CC(=O)O)C(=O)N[C@@H](CCCNC(=N)N)C(=O)N[C@@H](CCCCN)C(=O)N[C@@H](CCCCN)C(=O)N[C@@H](CCCNC(=N)N)C(=O)NCC(=O)NCC(=O)N[C@@H](CS)C(=O)N[C@@H](CO)C(=O)N[C@@H](CCCNC(=N)N)C(=O)N[C@@H](CCCNC(=N)N)C(=O)N[C@@H](CO)C(=O)N[C@@H](CCCCN)C(=O)N[C@@H](CO)C(=O)N[C@@H](CCCCN)C(=O)N[C@@H](CS)C(=O)O [sample 2, KKRTLRKNDRKKR GG CSRRSKSKC] (H-KKRTLRKNDRKKRGGCSRRSKSKC-OH; N-terminus and C-terminus assumed) | cells in which a plurality of nuclei had formed were observed | – | 9 number and 12 number and 11 number | 30.0% and 37.5% and 39.3% | 35.6% |
| KKRTLRKNDRKKR (listed as Homo sapiens) [sample 3, reference compound] | cells in which a plurality of nuclei had formed were not observed | – | – | – | – |
